Measurements published in patent US20260014264A1, “SPECIFIC TOPOISOMERASE INHIBITOR, USE AS ANTIBODY DRUG CONJUGATE, AND PREPARATION METHOD THEREFOR” (BIOBRICS LIFE SCIENCE (NANTONG) CO., LTD., priority 2022, published 2026).
pIC50: −log10 of the molar value.

Tested on: human non-small cell lung cancer cell line A549
Assay: In vitro cytotoxicity test of released camptothecin analogs (Luminescent Cell Viability Assay)
Type: cell-based
Settings: A549, 120 h, read-out: IC50 (A549, nM)
Protocol: Stable transfection of high expression Her2, high expression SK-BR-3 and BT-474 human breast cancer cells, NCI-N87 human gastric cancer cells and human non-small cell lung cancer cell line A549 were selected as the cell lines for in vitro activity detection in this experiment, and the killing dose and effect of different antibody coupled drugs on cells were observed. Preliminary selection of plate density for each cell type: 2×10^3 cells/well, followed by cytotoxicity assay after 16-24 h; Next, the antibody coupled drug prepared in Example 2 was tested with a final concentration set at 5000 nM as the starting concentration, and a series of 10 concentrations (4-10 fold dilution) were designed for 5000-0.006 nM. […] The IC50 was calculated after reading the fluorescence data.
The linkers in the present invention are all cleavable linkers. Therefore, the released camptothecin analogs were first subjected to in vitro cytotoxic activity testing, and the results are shown in the table below.

Structure (SMILES)	IC50 [nM]
CC[C@@]1(O)C(=O)OCc2c1cc1n(c2=O)Cc2c-1nc1cc(F)c(C)c3c1c2[C@@H](NC(=O)CO)CC3 [Dxd, reference compound]	45.1
CC[C@@]1(O)C(=O)OCc2c1cc1n(c2=O)Cc2c-1nc1cc(F)c(NC(=O)CO)c3c1c2CCC3 [Compound A1-FD]	69.1

Same assay, conditions: A549 cells, 120 hours, chemiluminescence cell viability, read-out: IC50 (A549)

Structure (SMILES)	pIC50
CC[C@@]1(O)C(=O)OCc2c1cc1n(c2=O)Cc2c-1nc1cc(F)c(NC(=O)C3CC3O)c3c1c2CCC3 (stereo partly shown) [Compound A9-FD]	7.60
CC[C@@]1(O)C(=O)OCc2c1cc1n(c2=O)Cc2c-1nc1ccc(NC(=O)CO)c3c1c2CCC3 [Compound A16-FD]	7.10
CC[C@@]1(O)C(=O)OCc2c1cc1n(c2=O)Cc2c-1nc1cc(F)c(NC(=O)C(C)O)c3c1c2CCC3 (stereo partly shown) [Compound A2-FD]	9.28
CC[C@@]1(O)C(=O)OCc2c1cc1n(c2=O)Cc2c-1nc1cc(F)c(NC(=O)C3CC(O)C3)c3c1c2CCC3 (stereo partly shown) [Compound A11-FD]	8.68
CC[C@@]1(O)C(=O)OCc2c1cc1n(c2=O)Cc2c-1nc1cc(F)c(NC(=O)C(O)C3CC3)c3c1c2CCC3 (stereo partly shown) [Compound A3-FD]	8.26
